Test results from patent publication US10035795B1, “Phenothiazine derivatives having CaM inhibitory activity” (KOREA INSTITUTE OF SCIENCE AND TECHNOLOGY, priority 2017, dated 2018).

Test system: U87MG cells
Assay: Calcium imaging (Ca2+ imaging): change in the calcium level of the cells, Fura-2 340/380 ratio
Format: cell-based
Details: 100 μM in HEPES buffer, average 340/380 ratio reactivity for 200 seconds relative to TFP (trifluoperazine) as 100%
Procedure: Calcium Imaging (Ca^2+ Imaging)
Calcium imaging was conducted as follows in order to measure the change in the calcium level in […] (glioblastoma cells) by TFP (trifluoperazine) and the phenothiazine derivative represented by Chemical Formula 1 according to the present invention. First, after placing a polylysine (PDL)-coated coverslip on a 24-well plate, 2×10^4 U87MG cells detached by treating with trypsin were seeded thereupon. On the next day, the coverslip was incubated at room temperature for 1 hour in a Fura-2 solution (5 μM Fura-2 AM, 1 μM pluronic acid in HEPES buffer, pH 7.4) and washed twice with a HEPES buffer (10 mM HEPES, 150 mM NaCl, 3 mM KCl, 2 mM CaCl2, 1 mM MgCl2, 22 mM sucrose, 10 mM glucose, pH 7.4). The washed coverslip was mounted in a bath adapter (bath adapter) and placed under a calcium imaging microscope (Olympus IX71). After connecting a bath line to the bath adapter, the change in the calcium level of the cells was recorded for 300 seconds (4-second intervals; 340 nm, 380 nm, 340/380 nm ratio) by running a calcium imaging program (Imaging Workbench 6.0, Indec Inc.). After flowing a HEPES buffer for 50 seconds for setting of the baseline, a TFP (trifluoperazine) solution or solution of the phenothiazine derivative represented by Chemical Formula 1 (100 μM in HEPES buffer) were flown as test solutions for 100 seconds and then a HEPES buffer was flown again for 150 seconds. All the test solutions were prepared by diluting a 50 mM stock solution to 100 μM with a HEPES buffer. For analysis of the change of intracellular calcium level by the phenothiazine derivative represented by Chemical Formula 1, data files were read using a calcium imaging analysis program (Clampfit 9.2, Axon Inc.) and only the 340/380 ratio values were taken. The values recorded for the first 50 seconds were set to “0” and graphs were rearranged. Then, the average reactivity to the phenothiazine derivative represented by Chemical Formula 1 for 200 seconds was calculated relative to the average reactivity to TFP (trifluoperazine) for 200 seconds as 100%.

Point of comparison: Clc1ccc2c(c1)N(CCCN1CCC(N3CCCCC3)CC1)c1ccccc1S2 [Example 69, 10-(3-(1,4′-bipiperidin-1′-yl)propyl)-2-chloro-10H-phenothiazine], “Reactivity (%)” value 124%. Against it:
- Fc1ccc2c(c1)N(CCCCN1CCC(N3CCCC3)CC1)c1ccccc1S2 [Example 77, 2-fluoro-10-(4-(4-(pyrrolidin-1-yl)piperidin-1-yl)butyl)-10H-phenothiazine] — higher, 149%
- CSc1ccc2c(c1)N(CCCCN1CCC(N3CCCC3)CC1)c1ccccc1S2 [Example 52, 2-(methylthio)-10-(4-(4-(pyrrolidin-1-yl)piperidin-1-yl)butyl)-10H-phenothiazine] — higher, 150%
- CC1CCN(CCCCN2c3ccccc3Sc3ccc(F)cc32)CC1 [Example 76, 2-fluoro-10-(4-(4-methylpiperidin-1-yl)butyl)-10H-phenothiazine] — lower, 110%
- FC(F)(F)c1ccc2c(c1)N(CCCCN1CCC(N3CCOCC3)CC1)c1ccccc1S2 [Example 41, 4-(1-(4-(2-(trifluoromethyl)-10H-phenothiazine;-10-yl)butyl)piperidin-4-yl)morpholine] — lower, 120%
- FC(F)(F)c1ccc2c(c1)N(CCCCN1CCC(N3CCCCC3)CC1)c1ccccc1S2 [Example 43, 10-(4-(1,4′-bipiperidin-1′-yl)butyl)-2-(trifluoromethyl)-10H-phenothiazine] — lower, 123%
- CSc1ccc2c(c1)N(CCCN1CCC(N3CCCC3)CC1)c1ccccc1S2 [Example 55, 2-(methylthio)-10-(3-(4-(pyrrolidin-1-yl)piperidin-1-yl)propyl)-10H-phenothiazine] — lower, 114%
- CN1CCN(CCCN2c3ccccc3Sc3ccc(C(F)(F)F)cc32)CC1 [TFP, trifluoperazine] — lower, 100%
- CSc1ccc2c(c1)N(CCCCN1CCC(N3CCCCC3)CC1)c1ccccc1S2 [Example 72, 10-(4-(1,4′-bipiperidin-1′-yl)butyl)-2-(methylthio)-10H-phenothiazine] — higher, 131%
- FC(F)(F)c1ccc2c(c1)N(CCCCN1CCC(N3CCCC3)CC1)c1ccccc1S2 [Example 42, 10-(4-(4-(pyrrolidin-1-yl)piperidin-1-yl)butyl)-2-(trifluoromethyl)-10H-phenothiazine] — higher, 134%

Test system: lung cancer
Assay: cell viability assay, colony formation assay and soft agar colony formation assay
Format: cell-based
Details: not given
Excerpt: (§1) TFP is a phenothiazine-based compound mainly used as an antipsychotic [see patent document 1]. Antipsychotics are psychiatric drugs primarily used to manage psychosis such as schizophrenia, bipolar disorder, etc. and also to manage non-psychiatric disorder such as sleep. The antipsychotics tend to block receptors in the brain's dopamine pathways but cover a wide range of drug targets. […] Based on this, cell viability assay, matrigel invasion assay, colony formation assay and soft agar colony formation assay were conducted to investigate whether TFP suppresses lung cancer.

In the case of CN1CCN(CCCN2c3ccccc3Sc3ccc(C(F)(F)F)cc32)CC1 [TFP, trifluoperazine], the “migration and proliferation of lung cancer” value is reported as “suppresses the migration and proliferation of lung cancer”.

Test system: cancer cells
Assay: matrigel invasion assay
Format: cell-based
Details: not given
Excerpt: as §1

In the case of CN1CCN(CCCN2c3ccccc3Sc3ccc(C(F)(F)F)cc32)CC1 [TFP, trifluoperazine], the “invasion of cancer cells” value is reported as “inhibits the invasion of cancer cells”.
